From patent US10561638B2, “Methods for treating dependence” (Biotie Therapies, Inc., priority 2007, dated 2020)
Entries after “also recorded” stand apart in the source; their conditions may differ.

Tests used:
[1] = target: β1 adrenoceptors (Homo sapiens, UniProt P08588); assay: Radioligand binding assay
Procedure: (§1) The activity of nepicastat at twelve selected enzymes and receptors was determined using established assays. Binding data were analyzed by iterative curve-fitting to a four parameter logistic equation. Ki values were calculated from IC50 values using the Cheng-Prusoff equation. Enzyme inhibitory activity was expressed as IC50 (concentration required to produce 50% inhibition of enzyme activity).
(§2) The activity of nepicastat at eleven different enzymes was determined using established assays. The affinity of nepicastat for thirteen selected receptors was determined by radioligand binding assays using standard filtration techniques and membrane preparations. Binding data were analyzed by iterative curve fitting to a four parameter logistic equation. Ki values were calculated using the Cheng-Prusoff equation.

[2] = target: α2B adrenoceptors (Homo sapiens, UniProt P18089); assay: Radioligand binding assay
Procedure: as §1, §2

[3] = target: α2A adrenoceptors (Homo sapiens, UniProt P08913); assay: Radioligand binding assay
Procedure: as §1, §2

[4] = target: μ opioid receptors (Homo sapiens, UniProt P35372); assay: Radioligand binding assay
Procedure: as §1, §2

[5] = target: β2 adrenoceptors (Homo sapiens, UniProt P07550); assay: Radioligand binding assay
Procedure: as §1, §2

[6] = target: α1A adrenoceptors (Homo sapiens, UniProt P35348); assay: Radioligand binding assay
Procedure: as §1, §2

[7] = target: α1B adrenoceptors (Homo sapiens, UniProt P35368); assay: Radioligand binding assay
Procedure: as §1, §2

[8] = test system: pithed SHRs; assay: Pressor response to pre-ganglionic nerve stimulation in pithed SHRs; assay type: in vivo, spontaneously hypertensive rats
Procedure: The in vivo hemodynamic activity of nepicastat was further assessed in conscious, restrained SHRs, a model having high sympathetic drive to cardiovascular tissues. Hemodynamic study in SHRs. Male SHRs (15-16 week old) were used in the study. The animals were lightly anesthetized with ether and the left femoral artery and vein were catheterized for measurement of blood pressure and drug administration, respectively. The animals were placed in restrainers and allowed to recover for 30-40 min. After obtaining baseline measurements, the animals were treated, orally, with either vehicle or the appropriate dose of nepicastat and hemodynamic parameters were continuously recorded for 4 h. The animals were then anesthetized with pentobarbital, placed on a heating pad (37° C.) and ventilated with a Harvard rodent ventilator. After administration of atropine (1 mg/kg, iv) and tubocurarine (1 mg/kg, iv), the animals were pithed through the orbit of the eye with a stainless steel rod. The […] rod was stimulated electrically with 1 ms pulses of 80V at different frequencies (0.15, 0.45, 1.5, 5, 15 Hz) to obtain frequency-pressor response curves. […] The response was slow in onset, reaching its plateau in 3-4 h. […] Following this study, the rats were pithed and the effects of nepicastat on the pressor response to pre-ganglionic nerve stimulation (PNS) of the spinal cord were evaluated 5 h after dosing.

[9] = target: protein kinase C; assay: Enzyme selectivity assay; assay type: biochemical
Procedure: as §1, §2

[10] = test system: SHRs; settings: rat, in vivo
[11] = test system: tissue norepinephrine and dopamine levels; assay: Tissue catecholamines in Sprague-Dawley rats after 10 days b.i.d. dosing; assay type: in vivo; settings: for dopamine/norepinephrine ratio vs vehicle: 2.0 and 6.2 mg/kg b.i.d., day 10, hydrochloride; for norepinephrine levels vs vehicle: 2.0 and 6.2 mg/kg
Procedure: Male Sprague-Dawley rats, weighing 180-200 grams, were fed an iodine deficient diet (Purina, 5891C, Lot 1478, 0.066±0.042 mg iodine/kg sample) ad libitum 14 days prior to treatment. Animals were weighed and randomly assigned to one of the following treatment groups (n=12 per group): nepicastat at 2.0 mg/kg, nepicastat at 6.2 mg/kg, Methimazole at 1 mg/kg, or vehicle at 1 ml/kg. Each group of rats was dosed orally in the evening and the following morning, approximately 12 hours apart, for 10 consecutive days.
At four hours after the second dose, on day 10, rats were anesthetized with halothane, decapitated, and the cortex, striatum, and mesenteric artery were harvested and weighed. Tissue samples were not harvested from the methimazole groups as they only served as positive controls for determination of thyroid function. The mesenteric artery, cortex, and striatum were immediately placed in 0.4 M iced perchloric acid and analyzed for norepinephrine and dopamine levels the same day using HPLC.
To statistically evaluate changes in T3 and T4 levels, a change from baseline was calculated from the day −3 time point. A non-parametric two-way within subject analysis of variance (ANOVA) was conducted. Also a one-way ANOVA was performed to detect if a significant difference from control occurred. Pairwise analyses between controls and each treatment group were carried out using Fisher's LSD strategy to control the experiment-wise error rate. For statistical analysis of catecholamine levels, a one-way ANOVA with factor DOSE was performed. Pairwise analyses between treated and controls at each dose were carried out using Fisher's LSD strategy to control the experiment-wise error rate.

[12] = test system: CD-1 (ICR) mice; assay: Locomotor activity in mice, intraperitoneal; assay type: in vivo; settings: i.p.; nepicastat 3-100, SKF-102698 30 and 100, cocaine 30 mg/kg
Excerpt: Adult male CD-1 (ICR) mice (30-40 g on study day) were housed in groups of eight under a normal light/dark cycle with lights on between 0900 hr and 2100 hr. Food and water were allowed ad libitum. All animals were naive to drug treatment and behavioral testing. Each animal was only used once.
Locomotor activity was monitored in an automated 14 station activity monitoring system (San Diego Instrument Co.). Each station consisted of a clear perspex cage (25 cm×45 cm×20 cm; w×1×h) placed within a metal frame containing 3 photoemmitors and 3 photodetectors spaced equally along the length of the wall. The bottom of each cage was lightly covered in clean cedar bedding.
The mice were placed in the testing room at least 1 hr prior to testing. The mice were placed individually into one of the activity cages and allowed to explore for 30 min. […] Following a 60 minute pre-treatment period, motor activity was monitored for 180 minutes. Activity counts and ambulations (defined as a break of 2 consecutive photobeams) for each animal were recorded every 30 minutes.
A repeated measures two-way analysis of variance (ANOVA) was performed using the overall ranked data (nonparametric technique) to test for the overall effects of treatment, time interval and treatment by time interval interaction. […]

Chain of α2A adrenoceptors (P08913 whole entry): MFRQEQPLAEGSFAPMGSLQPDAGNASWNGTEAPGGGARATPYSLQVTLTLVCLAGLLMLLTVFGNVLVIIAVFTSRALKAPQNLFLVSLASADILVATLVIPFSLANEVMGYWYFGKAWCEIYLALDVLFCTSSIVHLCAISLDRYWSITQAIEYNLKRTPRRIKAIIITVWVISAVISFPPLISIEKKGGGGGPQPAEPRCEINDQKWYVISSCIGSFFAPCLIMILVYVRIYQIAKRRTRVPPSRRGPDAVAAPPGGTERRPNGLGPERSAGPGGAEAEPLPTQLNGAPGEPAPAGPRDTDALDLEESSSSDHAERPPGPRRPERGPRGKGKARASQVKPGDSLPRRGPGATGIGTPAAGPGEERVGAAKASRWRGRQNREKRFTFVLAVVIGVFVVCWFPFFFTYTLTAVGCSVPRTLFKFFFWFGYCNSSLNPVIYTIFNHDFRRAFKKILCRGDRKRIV
Chain of α1A adrenoceptors (P35348 whole entry): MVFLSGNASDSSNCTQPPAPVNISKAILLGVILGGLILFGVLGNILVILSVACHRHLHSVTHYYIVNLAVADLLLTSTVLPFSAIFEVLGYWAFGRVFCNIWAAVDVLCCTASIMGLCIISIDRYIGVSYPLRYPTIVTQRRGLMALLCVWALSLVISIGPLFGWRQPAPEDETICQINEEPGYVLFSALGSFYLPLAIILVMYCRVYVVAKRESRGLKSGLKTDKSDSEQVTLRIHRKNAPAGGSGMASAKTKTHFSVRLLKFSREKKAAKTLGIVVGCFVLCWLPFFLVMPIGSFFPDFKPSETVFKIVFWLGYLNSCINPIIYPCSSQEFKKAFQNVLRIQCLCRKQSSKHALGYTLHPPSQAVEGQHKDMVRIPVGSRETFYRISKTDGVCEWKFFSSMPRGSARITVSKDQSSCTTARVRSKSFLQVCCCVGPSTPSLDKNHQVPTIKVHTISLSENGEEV
Chain of α1B adrenoceptors (P35368 whole entry): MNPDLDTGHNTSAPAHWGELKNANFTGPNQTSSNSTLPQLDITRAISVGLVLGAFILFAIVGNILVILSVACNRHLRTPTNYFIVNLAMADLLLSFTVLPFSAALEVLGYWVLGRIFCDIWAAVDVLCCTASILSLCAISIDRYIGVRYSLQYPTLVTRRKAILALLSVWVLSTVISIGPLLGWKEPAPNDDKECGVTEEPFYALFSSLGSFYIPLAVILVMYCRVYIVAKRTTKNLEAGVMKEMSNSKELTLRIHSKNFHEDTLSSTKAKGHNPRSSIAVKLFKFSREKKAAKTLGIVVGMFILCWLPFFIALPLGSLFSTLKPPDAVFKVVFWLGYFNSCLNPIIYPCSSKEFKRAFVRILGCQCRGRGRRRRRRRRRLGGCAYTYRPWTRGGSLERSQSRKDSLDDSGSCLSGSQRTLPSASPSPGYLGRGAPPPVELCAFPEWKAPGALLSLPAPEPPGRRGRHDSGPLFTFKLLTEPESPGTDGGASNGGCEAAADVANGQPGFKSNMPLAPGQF
Chain of β1 adrenoceptors (P08588 whole entry): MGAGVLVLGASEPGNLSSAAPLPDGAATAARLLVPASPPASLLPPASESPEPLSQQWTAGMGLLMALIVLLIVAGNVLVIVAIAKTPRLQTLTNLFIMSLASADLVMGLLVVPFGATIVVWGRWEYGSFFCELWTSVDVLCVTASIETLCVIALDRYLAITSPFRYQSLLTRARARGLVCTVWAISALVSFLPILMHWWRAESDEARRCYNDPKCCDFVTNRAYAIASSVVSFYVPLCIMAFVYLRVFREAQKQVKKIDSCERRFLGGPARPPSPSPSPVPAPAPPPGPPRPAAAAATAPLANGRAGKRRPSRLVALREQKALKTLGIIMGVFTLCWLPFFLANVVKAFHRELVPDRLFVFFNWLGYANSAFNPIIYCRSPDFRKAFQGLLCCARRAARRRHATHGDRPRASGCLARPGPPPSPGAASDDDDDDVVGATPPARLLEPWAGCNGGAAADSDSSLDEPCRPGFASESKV
Chain of μ opioid receptors (P35372 whole entry): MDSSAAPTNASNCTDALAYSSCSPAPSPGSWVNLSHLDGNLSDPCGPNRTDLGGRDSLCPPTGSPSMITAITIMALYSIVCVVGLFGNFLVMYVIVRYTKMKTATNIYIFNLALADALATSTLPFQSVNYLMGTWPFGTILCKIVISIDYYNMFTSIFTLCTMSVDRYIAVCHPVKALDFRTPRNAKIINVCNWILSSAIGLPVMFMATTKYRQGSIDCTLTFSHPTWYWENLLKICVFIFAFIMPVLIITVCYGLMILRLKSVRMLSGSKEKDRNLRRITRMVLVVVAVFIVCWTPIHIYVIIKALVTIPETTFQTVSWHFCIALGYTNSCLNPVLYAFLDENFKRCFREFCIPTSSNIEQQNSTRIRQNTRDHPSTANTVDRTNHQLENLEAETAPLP
Chain of α2B adrenoceptors (P18089 whole entry): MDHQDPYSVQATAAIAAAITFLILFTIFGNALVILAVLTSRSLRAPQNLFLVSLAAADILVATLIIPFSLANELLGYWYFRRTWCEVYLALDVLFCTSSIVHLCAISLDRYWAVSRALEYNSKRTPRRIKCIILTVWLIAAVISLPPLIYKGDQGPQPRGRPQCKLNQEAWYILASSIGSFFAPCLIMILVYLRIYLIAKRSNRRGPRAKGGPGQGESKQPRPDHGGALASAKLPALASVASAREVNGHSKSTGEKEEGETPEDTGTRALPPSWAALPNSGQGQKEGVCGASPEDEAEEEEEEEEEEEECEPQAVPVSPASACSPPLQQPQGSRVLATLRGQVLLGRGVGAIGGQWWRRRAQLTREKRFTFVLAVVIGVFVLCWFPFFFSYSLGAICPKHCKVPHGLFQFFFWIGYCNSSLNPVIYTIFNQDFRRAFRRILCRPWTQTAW
Chain of β2 adrenoceptors (P07550 whole entry): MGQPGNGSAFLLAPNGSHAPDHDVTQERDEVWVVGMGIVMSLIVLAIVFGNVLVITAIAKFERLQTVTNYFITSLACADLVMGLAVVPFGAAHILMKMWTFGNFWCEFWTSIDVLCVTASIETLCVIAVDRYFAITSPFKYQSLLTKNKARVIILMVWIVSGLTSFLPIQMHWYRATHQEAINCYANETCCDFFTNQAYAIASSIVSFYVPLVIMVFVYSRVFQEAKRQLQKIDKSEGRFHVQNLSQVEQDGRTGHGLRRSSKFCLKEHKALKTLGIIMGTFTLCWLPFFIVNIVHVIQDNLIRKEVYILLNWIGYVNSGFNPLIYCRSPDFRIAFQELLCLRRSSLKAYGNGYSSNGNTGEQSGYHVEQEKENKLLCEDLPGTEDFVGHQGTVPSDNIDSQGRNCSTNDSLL

Cl.NCc1c[nH]c(=S)n1[C@H]1CCc2c(F)cc(F)cc2C1 [nepicastat, (S)-5-Aminomethyl-1-(5,7-difluoro-1,2,3,4-tetrahydronaphth-2-yl)-2,3-dihydro-2-thioxo-1H-imidazole hydrochloride]
Ki [1]: > 10 µM | Ki [2]: > 10 µM | Ki [3]: > 10 µM | Ki [4]: > 10 µM | Ki [5]: > 10 µM | Ki [6]: > 10 µM | Ki [7]: > 10 µM | hypertensive and tachycardic responses to preganglionic nerve stimulation ([8]; 3 mg/kg p.o., 5 hours after dosing): significantly attenuated the hypertensive and tachycardic responses | heart rate response to PNS ([8]; 5 h after dosing): not significantly affected | maximum shift in the frequency-pressor response curve ([8]; 5 h after dosing): ~5 fold | IC50 [9]: > 10 µM | motor activity (MA) [10]: unaffected | dopamine levels vs vehicle ([11]; all three tissues, 2.0 or 6.2 mg/kg): not significantly (p>0.05) different | dopamine/norepinephrine ratio vs vehicle ([11]; cortex (and striatum)): not in the cortex; also recorded: not significantly (p>0.05) different | norepinephrine levels vs vehicle ([11]; cortex): not significantly (p>0.05) different | norepinephrine levels vs vehicle ([11]; mesenteric artery): significantly (p<0.05) lower | dopamine/norepinephrine ratio vs vehicle ([11]; mesenteric artery): significantly raised; also recorded: significantly (p<0.05) higher | norepinephrine levels vs vehicle ([11]; striatum): marginally (p<0.10) lower

Fc1cc(F)cc(Cn2cc[nH]c2=S)c1 [SKF-102698, reference compound]
total activity counts and ambulations vs vehicle [12]: no significant differences; also recorded: no significant effects
